Legend:
[1] = human gut metagenome, 24 h, 2 µM
[2] = The drug is tested on WLS-010 corresponding to human gut metagenome with ENA study accession number: PRJEB37062 and ENA sample accession number: ERS12561743 for biotransformation under anaerobic condition. The drug concentrations were measured over 9 timepoints collected between 0 and 24 hours of incubation by liquid-chromatography-coupled mass spectrometry (LC–MS); details: 2 µM
[3] = The drug is tested on WLS-350 corresponding to human gut metagenome with ENA study accession number: PRJEB37062 and ENA sample accession number: ERS12561789 for biotransformation under anaerobic condition. The drug concentrations were measured over 9 timepoints collected between 0 and 24 hours of incubation by liquid-chromatography-coupled mass spectrometry (LC–MS); details: 2 µM
[4] = human gut metagenome, 24 h, 2 µM; remark: listed apart in the source
[5] = The drug is tested on WLS-220 corresponding to human gut metagenome with ENA study accession number: PRJEB37062 and ENA sample accession number: ERS12561769 for biotransformation under anaerobic condition. The drug concentrations were measured over 9 timepoints collected between 0 and 24 hours of incubation by liquid-chromatography-coupled mass spectrometry (LC–MS); details: 2 µM
[6] = The drug is tested on Z-021 corresponding to metagenome with ENA study accession number: PRJEB37062 and ENA sample accession number: ERS12561820 for biotransformation under anaerobic condition. The drug concentrations were measured over 9 timepoints collected between 0 and 24 hours of incubation by liquid-chromatography-coupled mass spectrometry (LC–MS); details: 2 µM
[7] = The drug is tested on Z-016 corresponding to mouse gut metagenome with ENA study accession number: PRJEB37062 and ENA sample accession number: ERS12561815 for biotransformation under anaerobic condition. The drug concentrations were measured over 9 timepoints collected between 0 and 24 hours of incubation by liquid-chromatography-coupled mass spectrometry (LC–MS); details: 2 µM
[8] = human gut metagenome, 24 h, 2 µM; remark: listed apart in the source
[9] = The drug is tested on WLS-073 corresponding to human gut metagenome with ENA study accession number: PRJEB37062 and ENA sample accession number: ERS12561749 for biotransformation under anaerobic condition. The drug concentrations were measured over 9 timepoints collected between 0 and 24 hours of incubation by liquid-chromatography-coupled mass spectrometry (LC–MS); details: 2 µM
[10] = The drug is tested on Z-006 corresponding to mouse gut metagenome with ENA study accession number: PRJEB37062 and ENA sample accession number: ERS12561806 for biotransformation under anaerobic condition. The drug concentrations were measured over 9 timepoints collected between 0 and 24 hours of incubation by liquid-chromatography-coupled mass spectrometry (LC–MS); details: 2 µM
[11] = human gut metagenome, 24 h, 2 µM; remark: listed apart in the source
[12] = human gut metagenome, 24 h, 2 µM; remark: listed apart in the source
[13] = human gut metagenome, 24 h, 2 µM; remark: listed apart in the source
[14] = The drug is tested on Z-024 corresponding to pig gut metagenome with ENA study accession number: PRJEB37062 and ENA sample accession number: ERS12561823 for biotransformation under anaerobic condition. The drug concentrations were measured over 9 timepoints collected between 0 and 24 hours of incubation by liquid-chromatography-coupled mass spectrometry (LC–MS); details: 2 µM
[15] = human gut metagenome, 24 h, 2 µM; remark: listed apart in the source
[16] = The drug is tested on WLS-027 corresponding to human gut metagenome with ENA study accession number: PRJEB37062 and ENA sample accession number: ERS12561744 for biotransformation under anaerobic condition. The drug concentrations were measured over 9 timepoints collected between 0 and 24 hours of incubation by liquid-chromatography-coupled mass spectrometry (LC–MS); details: 2 µM
[17] = The drug is tested on WLS-170 corresponding to human gut metagenome with ENA study accession number: PRJEB37062 and ENA sample accession number: ERS12561762 for biotransformation under anaerobic condition. The drug concentrations were measured over 9 timepoints collected between 0 and 24 hours of incubation by liquid-chromatography-coupled mass spectrometry (LC–MS); details: 2 µM
[18] = human gut metagenome, 24 h, 2 µM; remark: listed apart in the source
[19] = human gut metagenome, 24 h, 2 µM; remark: listed apart in the source
[20] = The drug is tested on WLS-038 corresponding to human gut metagenome with ENA study accession number: PRJEB37062 and ENA sample accession number: ERS12561745 for biotransformation under anaerobic condition. The drug concentrations were measured over 9 timepoints collected between 0 and 24 hours of incubation by liquid-chromatography-coupled mass spectrometry (LC–MS); details: 2 µM
Note: call rule not given here.

Structure (SMILES)	Bacterial Biotransformation [1]	Bacterial Biotransformation [2]	Bacterial Biotransformation [3]	Bacterial Biotransformation [4]	Bacterial Biotransformation [5]	Bacterial Biotransformation [6]	Bacterial Biotransformation [7]	Bacterial Biotransformation [8]	Bacterial Biotransformation [9]	Bacterial Biotransformation [10]	Bacterial Biotransformation [11]	Bacterial Biotransformation [12]	Bacterial Biotransformation [13]	Bacterial Biotransformation [14]	Bacterial Biotransformation [15]	Bacterial Biotransformation [16]	Bacterial Biotransformation [17]	Bacterial Biotransformation [18]	Bacterial Biotransformation [19]	Bacterial Biotransformation [20]
CCCCCNC(=N)N/N=C/c1c[nH]c2ccc(OC)cc12.O=C(O)/C=C\C(=O)O [TEGASEROD MALEATE]	Compound NOT metabolized	Compound NOT metabolized	Compound NOT metabolized	Compound NOT metabolized	Compound NOT metabolized	Compound NOT metabolized	Compound NOT metabolized	Compound NOT metabolized	Compound metabolized	Compound NOT metabolized	Compound NOT metabolized	Compound metabolized	Compound NOT metabolized	Compound metabolized	Compound NOT metabolized	Compound NOT metabolized	Compound metabolized	–	–	–
COc1cc2nc(N3CCN(C(=O)C4COc5ccccc5O4)CC3)nc(N)c2cc1OC.CS(=O)(=O)O (configuration not stated) [DOXAZOSIN MESYLATE]	Compound metabolized	Compound metabolized	Compound metabolized	Compound metabolized	Compound metabolized	Compound NOT metabolized	Compound NOT metabolized	Compound metabolized	–	Compound NOT metabolized	Compound metabolized	Compound metabolized	Compound metabolized	Compound NOT metabolized	Compound metabolized	Compound metabolized	Compound metabolized	Compound NOT metabolized	Compound metabolized	Compound metabolized
COc1cc(NC(C)CCCN)c2ncccc2c1.O=P(O)(O)O.O=P(O)(O)O (configuration not stated) [PRIMAQUINE PHOSPHATE]	Compound NOT metabolized	–	Compound NOT metabolized	Compound NOT metabolized	Compound metabolized	Compound NOT metabolized	Compound metabolized	Compound NOT metabolized	Compound NOT metabolized	Compound NOT metabolized	Compound NOT metabolized	Compound NOT metabolized	Compound NOT metabolized	Compound NOT metabolized	Compound NOT metabolized	Compound NOT metabolized	Compound NOT metabolized	Compound metabolized	Compound NOT metabolized	Compound NOT metabolized
CCc1oc2ccccc2c1C(=O)c1cc(Br)c(O)c(Br)c1 [BENZBROMARONE]	Compound NOT metabolized	Compound metabolized	Compound NOT metabolized	Compound metabolized	Compound metabolized	Compound NOT metabolized	Compound NOT metabolized	Compound metabolized	–	Compound NOT metabolized	Compound metabolized	Compound metabolized	Compound metabolized	Compound NOT metabolized	Compound metabolized	Compound metabolized	Compound metabolized	Compound metabolized	Compound metabolized	Compound metabolized
CC(=O)O[C@H]1C(=O)[C@@]2(C)[C@H]([C@H](OC(=O)c3ccccc3)[C@]3(O)C[C@H](OC(=O)[C@H](O)[C@@H](NC(=O)c4ccccc4)c4ccccc4)C(C)=C1C3(C)C)[C@]1(OC(C)=O)CO[C@@H]1C[C@@H]2O [PACLITAXEL]	Compound NOT metabolized	Compound metabolized	Compound NOT metabolized	Compound NOT metabolized	Compound NOT metabolized	Compound NOT metabolized	Compound metabolized	Compound NOT metabolized	Compound metabolized	Compound NOT metabolized	Compound NOT metabolized	Compound NOT metabolized	Compound NOT metabolized	Compound metabolized	Compound NOT metabolized	Compound metabolized	Compound NOT metabolized	Compound NOT metabolized	–	Compound metabolized
COc1ccc(Cc2nccc3cc(OC)c(OC)cc23)cc1OC [PAPAVERINE]	Compound metabolized	Compound metabolized	Compound metabolized	Compound metabolized	Compound metabolized	Compound metabolized	Compound NOT metabolized	Compound metabolized	–	Compound NOT metabolized	Compound metabolized	Compound metabolized	Compound metabolized	Compound metabolized	Compound metabolized	Compound metabolized	Compound metabolized	Compound metabolized	Compound metabolized	Compound NOT metabolized

From ChEMBL document CHEMBL5724914, “Linking interpersonal differences in gut microbiota composition and drug biotransformation activity” (2024)
